Measurements: patent US11414419B2, “Substituted purines for the treatment of neurodegenerative and mitochondrial diseases” (Mitokinin, Inc., priority 2017, dated 2022)

Legend:
[1] = system: Parkin-expressing HeLa cells with intact wt PINK1; assay: Cytotoxicity experiments (DAPI stain, FACS); assay type: cell-based; settings: 50 uM, 24 hrs, versus MTK-64, FIG. 6
Procedure: Compounds were incubated for 24 hrs at 50 uM in Parkin-expressing HeLa cells with intact wt PINK1. After 24 hrs, cells were DAPI stained according to standard protocols and assayed via FACS.

PINK1 = target: T1, PINK1 (Homo sapiens, UniProt Q9BXM7); assay: PINK1-specific mitophagy assay (FACS for lysosomal-positive mt-mKeima); assay type: cell-based
T1 construct: expressed in transfected cells; host or cells: HeLa cells, retroviral transduction; they also stably express FRB-Fis1, mt-mKeima and Parkin
T1 sequence (Q9BXM7 111-581 limits assumed): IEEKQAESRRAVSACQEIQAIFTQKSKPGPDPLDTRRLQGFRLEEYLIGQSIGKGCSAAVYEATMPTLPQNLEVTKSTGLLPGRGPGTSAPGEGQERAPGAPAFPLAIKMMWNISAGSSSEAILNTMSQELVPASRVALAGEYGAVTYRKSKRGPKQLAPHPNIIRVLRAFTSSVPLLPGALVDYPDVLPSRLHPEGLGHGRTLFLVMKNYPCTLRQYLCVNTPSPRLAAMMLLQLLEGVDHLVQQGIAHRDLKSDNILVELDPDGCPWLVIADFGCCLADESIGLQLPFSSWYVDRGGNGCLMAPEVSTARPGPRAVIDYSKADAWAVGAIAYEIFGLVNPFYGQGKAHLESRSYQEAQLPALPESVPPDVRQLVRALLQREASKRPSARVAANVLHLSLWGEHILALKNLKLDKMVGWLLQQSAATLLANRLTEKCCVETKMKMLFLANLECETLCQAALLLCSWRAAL
Excerpt: mt-mKeima was cloned into a pCHAC-MCS-1-IRES-MCS2 vector. PINK1D110-YFP-23FKBP wild-type was cloned into pRetroQ-AcGFP-C1 at NheI/XhoI sites by Gibson assembly kit. The HA-tag was removed, and stop codon introduced. Wild-type HeLa cells stably expressing FRB-Fis1, mt-mKeima, Parkin, and wild-type PINK1D110-YFP-23FKBP were generated using retroviral transduction as described previously. Flag/HA-receptors were stably expressed in these cells by lentivirus transduction as described previously then treated with varying concentrations (see Table 2) of the experimental compounds for 5 days, followed by 1 uM rapalog for 24 h. Cells were then resuspended in sorting buffer (145 mM NaCl, 5 mM KCl, 1.8 mM CaCl2, 0.8 mM MgCl2, 10 mM HEPES, 10 mM glucose, 0.1% BSA) containing […] DAPI. Analysis was performed using Summit software (v6.2.6.16198) on a Beckman Coulter MoFlo Astrios cell sorter. Measurements of lysosomal mt-mKeima were made using dual-excitation ratiometric pH measurements at 488 (pH7) and 561 (pH4) nm lasers with 620/29 nm and 614/20 nm emission filters, respectively. For each sample, 50,000 events were collected and subsequently gated for YFP/mt-mKeima double-positive cells that were DAPI-negative. Data were analysed using FlowJo (v10, Tree Star).

in vivo = settings: rat; for Cmax / half-life / MRT inf / Tmax / AUC(0-inf) / AUC(0-t): male, SD; for half-life: HL_Lambda_z (T1/2); for MRT inf: MRTINF_pred; for AUC(0-inf): AUCINF_pred; for AUC(0-t): AUClast
Procedure: Compounds tested were as follows: kinetin (MW=215.21); MTK-115 (MW=243.26); MTK-115D (MW=219.29); MTK-125A (MW=217.27); and MTK-63A (MW=203.24). Formulation concentrations were 0.2 mg/mL for IV delivery; 0.5 mg/mL for PO delivery. Dosing was as follows: IV: 1 mg/kg, 5 mL/kg; PO: 5 mg/kg, 10 mL/kg. Results are as follows:
Compounds were prepared in a formulation of 4% DMSO, 15% Solutol HS 15, 81% PBS and then administered to male SD rats via oral gavage at 5 mg/kg (n=3 per compound). Plasma draws were taken at 15m, 30m, 1 hr, 2 hr, 4 hr, 8 hr, and 24 hrs, then analyzed by mass spectrometry for presence of the compound. Data were then plotted, and AUC values calculated.

[2] = rapalog + experimental compound 12.5 uM
[3] = rapalog + experimental compound 25 uM
[4] = rapalog + experimental compound 50 uM

Row | SMILES | toxicity versus mono-substituted comparator [1] | percentage of cells undergoing mitophagy (PINK1; [2]) [%] | percentage of cells undergoing mitophagy (PINK1; [3]) [%] | percentage of cells undergoing mitophagy (PINK1; [4]) [%] | Cmax (in vivo; iv, 1 mg/kg) [ng/mL] | half-life (in vivo; iv, 1 mg/kg) [min] | MRT inf (in vivo; iv, 1 mg/kg) [min] | Tmax (in vivo; iv, 1 mg/kg, Tmax) [min] | AUC(0-inf) (in vivo; po, 5 mg/kg) [ng·h/mL] | AUC(0-t) (in vivo; po, 5 mg/kg) [ng·h/mL] | Cmax (in vivo; po, 5 mg/kg) [ng/mL] | half-life (in vivo; po, 5 mg/kg) [min] | MRT inf (in vivo; po, 5 mg/kg) [min] | Tmax (in vivo; po, 5 mg/kg, Tmax) [min] | AUC(0-inf) (in vivo; iv, 1 mg/kg) [ng·h/mL] | AUC(0-t) (in vivo; iv, 1 mg/kg) [ng·h/mL] | Tmax (in vivo; po, 5 mg/kg) [min] | oral PK, AUC versus comparator (in vivo; 5 mg/kg) | increase in activity (mitophagy) (PINK1; versus MTX-63H (hydrogen instead of methyl at R3), FIG. 5) [%]
1 | Cc1nc(NCc2ccco2)c2nc(C)[nH]c2n1 [MTK-115] | substantial decrease in toxicity | 13.4 | 16 | 18.4 | 1850 | 23.4 | 24.6 | 4.8 | 5450 | 5300 | 1040 | 69 | 203 | 240 | – | – | – | – | –
2 | C/C=C/CNc1nc(C)nc2[nH]cnc12 [MTK-63A] | – | – | – | – | 1140 | 7.8 | 10.2 | 4.8 | 306 | 294 | 305 | 97.8 | 145 | 15 | 360 | 359 | 18 | – | –
3 | C/C=C/CNc1nc(C)nc2[nH]c(C)nc12 [MTK-115A] | – | 7.26 | 7.76 | 8.41 | – | – | – | – | – | – | 769 | – | 175 | – | – | – | – | substantial increase in AUC | –
4 | c1coc(CNc2ncnc3[nH]cnc23)c1 [kinetin, reference compound] | – | – | – | – | 176 | 7.2 | 10.8 | 4.8 | 130 | 122 | – | 64.8 | 79.2 | 15 | 57 | 56.8 | – | – | –
5 | CCCCNc1nc(C)nc2[nH]c(C)nc12 [MTK-115D] | – | 16.7 | 18.1 | 18.6 | 1440 | 7.2 | 10.2 | 4.8 | – | – | – | 39.6 | 182 | – | 470 | 469 | – | – | ~40
